Assay results reported in patent US20200197365A1, “TREATMENT WITH NMDA RECEPTOR MODULATORS” (Naurex Inc., priority 2017, published 2020).
Residues, ends and D or L forms follow the SMILES beside them.

Test system: Male rats
Assay: Sleep-wake cycle analysis by telemetric EEG recording (23 hours) in rats
Type: in vivo, rat
Conditions: for latency to REM sleep onset (change): FIG. 1B; for latency to SWS onset (change): FIG. 1A
Description: Male rats were anesthetized and surgically implanted with 2 surface electrodes in the frontoparietal cortex and 2 depth electrodes in the CA1 region of the hippocampus (AP+5.0 mm, L±2.5 mm, V+7.0 mm). After ≥10 days recovery, telemetric transmitters were connected to electrodes for electroencephalographic (EEG) recordings. On the day of experiment, rats were injected at the beginning of the light phase with rapastinel (3, 10, or 30 mg/kg, IV), ketamine (30 mg/kg, IP), or the positive control zolpidem (12 mg/kg, PO) using a treatment schedule based on a cross-over design (n=9-10/dose/group) in which rats received zolpidem or rapastinel at session 1 and then rapastinel and/or ketamine at sessions 2-4. Physiological saline was used as the vehicle control
Sleep-wake cycles were measured continuously following rapastinel treatment for the next 23 hours and were analyzed based on a spectral power analysis. Latencies to first occurrence of SWS and REM sleep, as well as percent time spent in SWS, REM sleep, and wakefulness, were calculated for the total recording sessions (23 hours), the half cycles (0-12 and 12-23 hours), and 5 time segments (0-4, 4-8, 8-12, 12-18, and 18-23 hours). Depth of SWS (defined as the ratio between alpha and delta spectral power) was also calculated. Differences between vehicle and test drugs were calculated for all variables, for each animal, and for the means of the animals per treatment group, and analyzed using a paired t-test

[1] = rapastinel, entire recording session, FIG. 2
[2] = ketamine 30 mg/kg IP, 12-23 hours post-dose, P<0.05

Q: With `Cc1ccc(-c2nc3ccc(C)cn3c2CC(=O)N(C)C)cc1` [Zolpidem, zolpidem] as the compound, how does the “percentage of active waking” value (zolpidem 12 mg/kg PO, 0-12 hours post-dose, P<0.05) read?
A: significantly decreased

Q: What about the “duration of REM sleep” value (zolpidem 12 mg/kg PO, 4-8 hours post-dose, P<0.05) of the same compound?
A: significantly decreased

Q: And the “depth of SWS” value (zolpidem 12 mg/kg PO, >8 hours post-dose, P<0.05, FIG. 2B)?
A: significantly increased

Q: What about the duration of waking (zolpidem 12 mg/kg PO, FIG. 4A) of the same compound?
A: no effect

Q: And the “latency to REM sleep onset (change)” value (zolpidem 12 mg/kg PO, P<0.01)?
A: +67%

Q: What about the “latency to SWS onset (change)” value (zolpidem 12 mg/kg PO, P<0.05) of the same compound?
A: −50%

Q: Which “latency to SWS onset (change)” value (rapastinel 3 mg/kg IV, P<0.05) does the source give for `C[C@@H](O)[C@H](N)C(=O)N1CCC[C@H]1C(=O)N1CCC[C@H]1C(=O)N[C@H](C(N)=O)[C@@H](C)O` [Rapastinel, rapastinel] (H-TPPT-NH2) here?
A: −33%

Q: And the “percentage of active waking” value (rapastinel 30 mg/kg IV, 8-12 hours post-dose, P<0.01)?
A: small but significant decrease

Q: And the “percentage of active waking” value (rapastinel 30 mg/kg IV, 18-23 hours post-dose, P<0.05)?
A: small but significant decrease

Q: And the “latency to REM sleep onset” value (rapastinel 3, 10, and 30 mg/kg IV)?
A: no significant effect

Q: What about the “duration of REM sleep” value (rapastinel 3, 10, and 30 mg/kg IV, FIG. 3) of the same compound?
A: did not have a significant effect

Q: And the duration of waking (rapastinel 3, 10, or 30 mg/kg IV, FIG. 4A)?
A: no effect

Q: And the “latency to SWS onset” value (rapastinel 10 and 30 mg/kg IV)?
A: no significant effect

Q: And the “percentage of active waking” value (rapastinel, all doses and time segments other than the 30 mg/kg exceptions, FIG. 4B)?
A: no effect

Q: And the “depth of SWS” value [1]?
A: no significant effect

Q: And the “duration of SWS” value [1]?
A: no significant effect

Q: How did the “alpha/delta ratio (depth of SWS)” value (ketamine 30 mg/kg IP, 0-4 hours post-dose) turn out when `CNC1(c2ccccc2Cl)CCCCC1=O` (centres unmarked) [Ketamine, ketamine] was run?
A: concomitant decrease

Q: What about the “duration of SWS” value (ketamine 30 mg/kg IP, 0-4 hours post-dose, FIG. 2A) of the same compound?
A: decreased

Q: And the “duration of REM sleep” value (ketamine 30 mg/kg IP, 0-4 hours post-dose, P<0.001)?
A: decreased

Q: And the “waking (duration)” value (ketamine 30 mg/kg IP, 12-23 hours post-dose, P<0.01)?
A: small but significant decrease

Q: And the “REM sleep (duration)” value [2]?
A: compensatory increase

Q: And the SWS duration [2]?
A: significantly increased

Q: And the “percentage of active waking” value [2]?
A: significantly decreased

Q: What about the “latency to SWS onset (change)” value (ketamine 30 mg/kg IP, P<0.001) of the same compound?
A: +393%

Q: What about the “latency to REM sleep onset (change)” value (ketamine 30 mg/kg IP, P<0.001) of the same compound?
A: +104%

Q: What about the duration of waking (ketamine 30 mg/kg IP, first 4 hours post-dose, P<0.001) of the same compound?
A: significantly increased
